Measurements reported in patent US4281121A, “1,3,4-Thiadiazole-2-carboxylic acid derivatives, process for making the same and fungicidal and nematocidal compositions containing same” (Schering Aktiengesellschaft, priority 1978, dated 1981).
Read-outs that look alike come from different tables or passages of the source.

Assays:
[1] = test system: Helminthosporium gramineum; assay: Seed treatment in open field tests for infestation by Helminthosporium gramineum (barley); format: in vivo; conditions: summer barley, about 3 months
Procedure: Seed treatment in open field tests for infestation by Helminthosporium gramineum
The active agents were used in the form of pulverulent compositions. After about 8 months in case of winter barley and after about 3 months in case of summer barley the infested plants were counted and the activity was calculated by the formula [formula]

Helminthosporium gram = conditions: about 5 weeks
Procedure: Treatment of barley seeds infested with Helminthosporium gram
After emergence, the plants were subjected to illumination for 12 hours per day. After about 5 weeks the infested plants were counted and the total number of plants for each test were also counted. The active agents tested were used as pulverulent compositions.

Pythium ultimum = assay: Threshold concentration test for use of the compounds against Pythium ultimum (infested soil, garden peas); format: in vivo; set-up: key to root evaluation (1-4): 4: white roots without fungous necrosis; 3: white roots, minor fungous necrosis; 2: brown roots, already more pronounced fungous necrosis; 1: heavy fungous necrosis, roots rotted; conditions: for root evaluation (1-4): 3 weeks; for number of sound peas: 20 grains per dish, 3 weeks at 20-24° C.
Outline: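 Pulverulent agents at 20% concentration mixed evenly into soil heavily infested with Pythium ultimum, then garden peas ('Wunder von Kelvedon', 20 per dish) sown at once. After three weeks at 20–24 °C in a hothouse, sound peas counted and roots scored on a 1–4 scale.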

Tilletia caries [2] = assay: Treatment of oat seeds infested with Tilletia caries (spore germination); format: in vivo
Septoria nodorum = assay: Treatment of oat seeds against Septoria nodorum; format: in vivo; conditions: 50 g active agent/100 kg seeds; 4 weeks
Procedure: Effects of the treatment of oat seeds against Septoria nodorum
They were then seeded on a moist substrate for germination. As a control untreated seeds were likewise seeded. At about 6° C. the seed was incubated in an air-conditioned chamber until after 4 weeks the proportion of diseased seeds could be determined and the activity of the fungicidal compounds was calculated on the basis of the following formula: [formula]
The active agents were applied in the form of 20% concentration pulverulent compositions.

Piricularia oryzae = format: in vivo; conditions: 5 days
Fusarium avenaceum = assay: Inhibition of fungus in a nutrient solution: Fusarium avenaceum; format: cell-based; conditions: 6 days at 21-23° C.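 Further: 0 means no fungus growth and higher grades mean more surface covered.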
Procedure: Inhibition of fungus in a nutrient solution
20 ml of a nutrient solution of grape juice and water (1:1) were filled into a glass vial of a 100 ml capacity and were mixed with the pulverulent active agents which appear from the subsequent table. Thereafter, the solution was inoculated with conidia (spores) of the test fungi.
After an incubation time of 6 days at 21° to 23° C. the fungus development on the surface of the nutrient solution was evaluated. The test fungi used were the following: Penicillium digitatum, Botrytis cinerea, Alternaria solani, Fusarium avenaceum.
The evaluation was carried out at a scale from 0 to 5 as follows: […]

Penicillium digitatum = assay: Inhibition of fungus in a nutrient solution: Penicillium digitatum; format: cell-based; conditions: 6 days at 21-23° C.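 Further: 0 means no fungus growth and higher grades mean more surface covered.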
Alternaria solani = assay: Inhibition of fungus in a nutrient solution: Alternaria solani; format: cell-based; conditions: 6 days at 21-23° C.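 Further: 0 means no fungus growth and higher grades mean more surface covered.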
Botrytis cinerea = assay: Inhibition of fungus in a nutrient solution: Botrytis cinerea; format: cell-based; conditions: 6 days at 21-23° C.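 Further: 0 means no fungus growth and higher grades mean more surface covered.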
Tilletia caries [3] = assay: Seed treatment in open field tests regarding infestation by Tilletia caries (oats); format: in vivo; conditions: winter oats; 100 g active agent/100 kg; about 9 months
Plasmopara viticola = assay: Prophylactic leaf treatment of grapevines in the hothouse against Plasmopara viticola; format: in vivo
Outline: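 Grapevines (5–8 leaves) sprayed to runoff with compound as 20% spray powder, then after drying inoculated on leaf undersides with sporangial suspension (~20,000/ml). Incubated at 22–24 °C, saturated humidity, 3–4 days normal humidity (30–70%), then one day saturated; activity from mean % infested leaf area per treatment.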

[4] = 25 g active agent/100 kg barley
[5] = 50 g active agent/100 kg barley
[6] = 100 g active agent/100 kg barley
[7] = concentration of active agent 0.1 (percentages)

Row | Structure (SMILES) | % activity [1, 4] [%] | % activity [1, 5] [%] | % activity [1, 6] [%] | % activity (Helminthosporium gram; 50 g active agent per 100 kg) [%] | root evaluation (1-4) (Pythium ultimum; 20 mg/l soil) | number of sound peas (Pythium ultimum; 20 mg/l soil) | root evaluation (1-4) (Pythium ultimum; 40 mg/l soil) | number of sound peas (Pythium ultimum; 40 mg/l soil) | % activity (Tilletia caries [2]; 10 g active agent per 100 kg) [%] | % activity (Tilletia caries [2]; 20 g active agent per 100 kg) [%] | % activity (Tilletia caries [2]; 50 g active agent per 100 kg) [%] | % activity (Piricularia oryzae; [7]) [%] | fungus development on the surface of the nutrient solution (0-5) (Fusarium avenaceum; 0.002%) | fungus development on the surface of the nutrient solution (0-5) (Fusarium avenaceum; 0.004%) | fungus development on the surface of the nutrient solution (0-5) (Penicillium digitatum; 0.002%) | fungus development on the surface of the nutrient solution (0-5) (Penicillium digitatum; 0.004%) | fungus development on the surface of the nutrient solution (0-5) (Alternaria solani; 0.002%) | fungus development on the surface of the nutrient solution (0-5) (Alternaria solani; 0.004%) | fungus development on the surface of the nutrient solution (0-5) (Botrytis cinerea; 0.002%) | fungus development on the surface of the nutrient solution (0-5) (Botrytis cinerea; 0.004%) | also measured
1 | CCS(=O)(=O)c1nnc(C(=O)NCCOC)s1 [5-ethylsulfonyl-1,3,4-thiadiazole-2-carboxylic acid-(2-methoxyethyl)-amide] | 92 | 98 | 99.8 | 100 | 1 | 13 | 4 | 16 | 100 | 100 | 100 | 90 |  |  |  |  |  |  |  |  | % activity (Helminthosporium gram; 10 g active agent per 100 kg): 100%; % activity (Helminthosporium gram; 20 g active agent per 100 kg): 99%; root evaluation (1-4) (Pythium ultimum; 80 mg/l soil): 4; number of sound peas (Pythium ultimum; 80 mg/l soil): 16; % activity (Septoria nodorum): 86%
2 | CCCCNC(=O)c1nnc(S(=O)(=O)CC)s1 [5-ethylsulfonyl-1,3,4-thiadiazole-2-carboxylic acid-butylamide] |  |  | 100 |  | 1 | 8 | 4 | 16 | 100 | 100 | 100 | 97 | 1 | 0 | 1 | 0 | 1 | 0 | 2 (5 to 10% of the surface covered by the fungus turf) | 0 | root evaluation (1-4) (Pythium ultimum; 80 mg/l soil): 4; number of sound peas (Pythium ultimum; 80 mg/l soil): 20
3 | CCOC(=O)c1nnc(S(=O)(=O)CC)s1 [5-ethylsulfonyl-1,3,4-thiadiazole-2-carboxylic acid-ethylester] |  |  |  |  |  |  |  |  |  |  |  | 95 | 1 | 0 | 1 | 0 | 0 | 0 | 2 (5 to 10% of the surface covered by the fungus turf) | 0 | 
4 | CCCNC(=O)c1nnc(S(=O)(=O)CC)s1 [5-ethylsulfonyl-1,3,4-thiadiazole-2-carboxylic acid-propylamide] | 95 | 99.3 | 100 | 92 |  |  |  |  | 100 | 100 | 100 |  |  |  |  |  |  |  |  |  | % activity (Septoria nodorum): 81%
5 | CS(=O)(=O)c1nnc(C(=O)NCC2CCCCC2)s1 [5-methylsulfonyl-1,3,4-thiadiazole-2-carboxylic acid cyclohexylmethylamide] |  |  |  |  |  |  |  |  | 99 | 100 |  | 80 |  |  |  |  |  |  |  |  | % activity (Tilletia caries [3]): 100%; % activity (Tilletia caries [2]; 5 g active agent per 100 kg): 86%; % activity (Plasmopara viticola; concentration of active agent 0.001 (unit not given)): 76%; % activity (Plasmopara viticola; concentration of active agent 0.005 (unit not given)): 88%; % activity (Plasmopara viticola; concentration of active agent 0.025 (unit not given)): 97%; % activity (Piricularia oryzae; concentration of active agent 0.02 (percentages)): 60%
6 | N#Cc1c(Cl)c(Cl)c(Cl)c(C#N)c1Cl [Tetrachloroisophthalodinitrile, reference compound] |  |  |  |  |  |  |  |  |  |  |  |  | 4 (30 to 60% of the surface covered by the fungus turf) | 3 (10 to 30% of the surface covered by the fungus turf) | 3 (10 to 30% of the surface covered by the fungus turf) | 2 (5 to 10% of the surface covered by the fungus turf) | 5 (60 to 100% of the surface covered by the fungus turf) | 5 (60 to 100% of the surface covered by the fungus turf) | 5 (60 to 100% of the surface covered by the fungus turf) | 4 (30 to 60% of the surface covered by the fungus turf) | 
